Values of other authors in PMC9516332 (Frontiers in Oncology, 2022).
Read-outs that look alike come from different tables or passages of the source.

Legend:
[1] = target: panel of 255 wild-type kinases (Homo sapiens, UniProt P17948); conditions: kinase FLT1, 1 µmol/L single concentration, cited from earlier work
[2] = target: T1, panel of 255 wild-type kinases (Homo sapiens, UniProt P29320); conditions: kinase EPHA3, 1 µmol/L single concentration, cited from earlier work
T1 sequence (P29320 21-983): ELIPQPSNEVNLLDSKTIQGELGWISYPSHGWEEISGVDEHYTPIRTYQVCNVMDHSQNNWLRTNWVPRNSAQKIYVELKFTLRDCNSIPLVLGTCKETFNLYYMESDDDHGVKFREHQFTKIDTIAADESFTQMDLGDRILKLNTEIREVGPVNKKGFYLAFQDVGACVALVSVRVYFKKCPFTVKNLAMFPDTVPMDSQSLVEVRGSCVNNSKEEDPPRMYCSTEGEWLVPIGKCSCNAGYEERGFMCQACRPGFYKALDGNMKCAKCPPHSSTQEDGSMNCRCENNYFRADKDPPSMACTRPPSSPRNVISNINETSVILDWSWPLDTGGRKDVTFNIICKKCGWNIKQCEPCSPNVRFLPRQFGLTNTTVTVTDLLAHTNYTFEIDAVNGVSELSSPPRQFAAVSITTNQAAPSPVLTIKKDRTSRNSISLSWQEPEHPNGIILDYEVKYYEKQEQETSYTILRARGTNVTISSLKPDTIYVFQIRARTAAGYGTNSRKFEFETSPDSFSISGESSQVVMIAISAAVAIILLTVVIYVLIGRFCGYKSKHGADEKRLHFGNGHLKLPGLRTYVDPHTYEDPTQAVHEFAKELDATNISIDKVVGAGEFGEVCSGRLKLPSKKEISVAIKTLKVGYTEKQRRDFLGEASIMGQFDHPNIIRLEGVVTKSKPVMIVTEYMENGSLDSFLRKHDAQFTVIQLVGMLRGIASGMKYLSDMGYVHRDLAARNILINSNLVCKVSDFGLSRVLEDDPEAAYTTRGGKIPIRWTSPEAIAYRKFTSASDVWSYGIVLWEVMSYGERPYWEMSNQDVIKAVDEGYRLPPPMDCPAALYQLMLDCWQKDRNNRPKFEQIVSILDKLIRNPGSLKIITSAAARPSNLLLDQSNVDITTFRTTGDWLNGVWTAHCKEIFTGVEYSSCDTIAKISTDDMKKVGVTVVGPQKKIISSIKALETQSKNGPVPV

[3] = target: T2, panel of 255 wild-type kinases (Homo sapiens, UniProt P51817); conditions: kinase PRKX, 1 µmol/L single concentration, cited from earlier work
T2 sequence (P51817 1-358): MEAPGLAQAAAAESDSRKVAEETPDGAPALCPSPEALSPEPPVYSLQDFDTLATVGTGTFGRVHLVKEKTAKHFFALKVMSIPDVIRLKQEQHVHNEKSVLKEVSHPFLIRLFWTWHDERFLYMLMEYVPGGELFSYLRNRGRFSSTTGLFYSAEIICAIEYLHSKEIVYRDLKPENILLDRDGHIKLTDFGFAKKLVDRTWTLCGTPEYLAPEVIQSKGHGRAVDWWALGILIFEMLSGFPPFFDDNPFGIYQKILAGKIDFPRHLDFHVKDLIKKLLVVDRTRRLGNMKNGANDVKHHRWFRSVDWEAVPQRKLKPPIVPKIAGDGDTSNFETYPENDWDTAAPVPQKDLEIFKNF

[4] = target: panel of 255 wild-type kinases (Homo sapiens, UniProt P78362); conditions: kinase SRPK2, 1 µmol/L single concentration, cited from earlier work
[5] = target: panel of 255 wild-type kinases (Homo sapiens, UniProt Q16644); conditions: MAPKAPK3, 1 µmol/L single concentration, cited from earlier work
[6] = target: panel of 255 wild-type kinases (Homo sapiens, UniProt Q8N568); conditions: kinase DCAMKL2, 1 µmol/L single concentration, cited from earlier work
[7] = target: T3, panel of 255 wild-type kinases (Homo sapiens, UniProt Q96PF2); conditions: kinase TSSK2, 1 µmol/L single concentration, cited from earlier work
T3 sequence (Q96PF2 1-358): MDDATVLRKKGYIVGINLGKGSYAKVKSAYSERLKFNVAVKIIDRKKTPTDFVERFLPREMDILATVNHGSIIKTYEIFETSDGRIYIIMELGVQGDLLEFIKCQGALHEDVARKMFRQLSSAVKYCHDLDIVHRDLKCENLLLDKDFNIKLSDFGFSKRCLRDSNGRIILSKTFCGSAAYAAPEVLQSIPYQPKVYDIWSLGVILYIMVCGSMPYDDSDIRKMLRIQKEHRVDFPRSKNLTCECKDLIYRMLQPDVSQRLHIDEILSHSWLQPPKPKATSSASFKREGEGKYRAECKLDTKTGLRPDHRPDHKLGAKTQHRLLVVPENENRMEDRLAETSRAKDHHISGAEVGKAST

[8] = target: panel of 255 wild-type kinases (Homo sapiens, UniProt Q9P286); conditions: PAK5, 1 µmol/L single concentration, cited from earlier work
[9] = target: T4, panel of 255 wild-type kinases (Homo sapiens, UniProt Q9UQB9); conditions: AurC kinase assay, 1 µmol/L single concentration, cited from earlier work
T4 sequence (Q9UQB9 1-309): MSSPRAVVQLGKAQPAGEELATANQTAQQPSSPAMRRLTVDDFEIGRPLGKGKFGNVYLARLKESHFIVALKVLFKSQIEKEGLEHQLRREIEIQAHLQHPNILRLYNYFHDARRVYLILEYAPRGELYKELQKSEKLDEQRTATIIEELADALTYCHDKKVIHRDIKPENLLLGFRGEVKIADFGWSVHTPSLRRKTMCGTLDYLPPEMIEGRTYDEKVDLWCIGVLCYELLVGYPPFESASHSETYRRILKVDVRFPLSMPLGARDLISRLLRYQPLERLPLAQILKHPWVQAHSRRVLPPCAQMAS

[10] = ref DOI: 10.1158/1535-7163.MCT-18-0877
[11] = ref DOI: 10.1371/journal.pone.0092146

In the case of C=CC(=O)Nc1cc(Nc2nccc(-c3cn(C)c4ccccc34)n2)c(OC)cc1N(C)CCN(C)C [osimertinib], the “%-inhibition at 1 µmol/L, FLT1” value [1, 10] is given as 9%, the “%-inhibition at 1 µmol/L, EPHA3” value [2, 10] is given as 0.753% and the “%-inhibition at 1 µmol/L, PRKX” value [3, 10] is given as 1.37%. The “%-inhibition at 1 µmol/L, SRPK2” value [4, 10] was 3.77%, the “%-inhibition, MAPKAPK3” value [5, 10] was -9% and the “%-inhibition at 1 µmol/L, DCAMKL2” value [6, 10] was -7%. The “%-inhibition at 1 µmol/L, TSSK2” value [7, 10] was -0.257%, the “%-inhibition, PAK5” value [8, 10] was 6% and the “%-inhibition AurC” value [9, 10] was 2.33%.

For CC(=O)Nc1cccc(-n2c(=O)n(C3CC3)c(=O)c3c(Nc4ccc(I)cc4F)n(C)c(=O)c(C)c32)c1 [trametinib], the “%-inhibition at 1 µmol/L, FLT1” value [1, 11] is listed as -2.75%, the “%-inhibition at 1 µmol/L, EPHA3” value [2, 11] is listed as -6% and the “%-inhibition at 1 µmol/L, PRKX” value [3, 11] is listed as -1.19%. For the same compound, the “%-inhibition at 1 µmol/L, SRPK2” value [4, 11] was -0.868%, the “%-inhibition, MAPKAPK3” value [5, 11] was -9% and the “%-inhibition at 1 µmol/L, DCAMKL2” value [6, 11] was -2.4%. The “%-inhibition at 1 µmol/L, TSSK2” value [7, 11] was -1.73%, the “%-inhibition, PAK5” value [8, 11] was -2.62% and the “%-inhibition AurC” value [9, 11] was 1%.

In the case of CCCS(=O)(=O)Nc1ccc(F)c(C(=O)c2c[nH]c3ncc(-c4ccc(Cl)cc4)cc23)c1F [vemurafenib], the “%-inhibition at 1 µmol/L, FLT1” value [1, 11] is given as 25%, the “%-inhibition at 1 µmol/L, EPHA3” value [2, 11] is given as -7.52% and the “%-inhibition at 1 µmol/L, PRKX” value [3, 11] is given as -3.45%. For the same compound, the “%-inhibition at 1 µmol/L, SRPK2” value [4, 11] was -2.2%, the “%-inhibition, MAPKAPK3” value [5, 11] was 12% and the “%-inhibition at 1 µmol/L, DCAMKL2” value [6, 11] was -3.52%. For the same compound, the “%-inhibition at 1 µmol/L, TSSK2” value [7, 11] was -11%, the “%-inhibition, PAK5” value [8, 11] was -1.23% and the “%-inhibition AurC” value [9, 11] was 13%.
